Experimental data as given in US20140243418A1, “RASAGILINE FOR PARKINSON'S DISEASE MODIFICATION” (Teva Pharmaceutical Industries, Ltd., priority 2008, published 2014).
“And” between values parts separate entries of the source, which are not always exact repeats. Identical values can stand only once. Like-named read-outs stand apart in the source and are kept apart here.

Tested on: Early Stage PD patients
Conditions: for Primary 1: rate of change in UPDRS, weeks 12-36, 1 mg/day - placebo / Secondary Endpoint: change in total UPDRS from baseline to final visit in phase I, 1 mg/day - placebo: rasagiline 1 mg/day minus placebo; for Primary 1: rate of change in UPDRS, weeks 12-36, 2 mg/day - placebo / Secondary Endpoint: change in total UPDRS from baseline to final visit in phase I, 2 mg/day - placebo: rasagiline 2 mg/day minus placebo
Procedure: 1 mg/day rasagiline during Phase I and Phase II; • Group 2. 2 mg/day rasagiline during Phase I and Phase II; • Group 3. placebo during Phase I followed by 1 mg/day rasagiline during Phase II; and • Group 4. placebo during Phase I followed by 2 mg/day rasagiline during Phase II.
Thus, ‘early-start’ patients receive 72 weeks of treatment with rasagiline (1 or 2 mg once daily) and ‘delayed-start’ patients receive 36 weeks of placebo followed by 36 weeks of rasagiline (1 or 2 mg once daily). […] If subjects in either treatment group required additional anti-parkinsonian medication during the placebo-controlled stage of the trial, they could proceed directly to Phase II. Once in Phase II, no additional anti-PD therapy is permitted. If the patient requires additional medication in this stage they are discontinued from the study.
1 mg/day rasagiline during Phase I and Phase II (1 mg early start) • 2. 2 mg/day rasagiline during Phase I and Phase II (2 mg early start) • 3. placebo during Phase I followed by 1 mg/day rasagiline during Phase II (1 mg delayed start) • 4. placebo during Phase I followed by 2 mg/day rasagiline during Phase II (2 mg delayed start)
If, at any stage during the placebo-controlled phase the investigator determines that a subject needs additional anti-PD therapy, the subject will proceed to Phase II of the study. The investigator, aided by a questionnaire, will give careful consideration to the issue of a subject's need for additional anti-PD therapy. Scheduled in-clinic visits will be conducted at baseline and at weeks 4, 12, 24 and 36. Therefore, altogether there will be 5 scheduled visits during this phase. Unscheduled visits may be conducted at any time to assess a subject's need for additional anti-PD therapy, for safety reasons or for any other reason.
Thus, subjects who receive 1 mg rasagiline during Phase I will continue to receive 1 mg during Phase II, subjects who receive 2 mg rasagiline during Phase I will continue to receive 2 mg during Phase II, and subjects who receive placebo during Phase I will receive either 1 mg or 2 mg rasagiline during Phase II. The study blind will be maintained. No additional anti-PD therapy will be permitted during this phase. This applies to both the subjects who enter Phase II after completing the full 36-week duration of Phase I and to subjects who are switched from Phase I to Phase II because of a need of additional anti-PD therapy. If, the investigator determines that a subject needs additional anti-PD therapy during Phase II, the subject will be prematurely withdrawn from the study. The investigator, aided by a questionnaire, will give careful consideration to the issue of a subject's need for additional anti-PD therapy. Scheduled in-clinic visits will be conducted every 6 weeks. Therefore, altogether there will be 6 visits during this phase—at weeks 42, 48, 54, 60, 66 and 72. Unscheduled visits may be conducted at any time to assess a subject's need for additional anti-PD therapy, for safety reasons or for any other reason.

[1] = Baseline UPDRS > 25.5 (Upper Quartile)
[2] = Baseline UPDRS ≦ 25.5 (Lower 3 Quartiles)
[3] = rasagiline 1 mg/day, Baseline UPDRS > 25.5 (Upper Quartile)
[4] = rasagiline 1 mg/day, Baseline UPDRS ≦ 25.5 (Lower 3 Quartiles)
[5] = rasagiline 1 mg/day, all subjects
[6] = rasagiline 1 mg/day, all subjects, listed as Rasagiline
[7] = rasagiline 2 mg/day delayed-start, Baseline UPDRS > 25.5 (Upper Quartile)
[8] = rasagiline 2 mg/day delayed-start, Baseline UPDRS ≦ 25.5 (Lower 3 Quartiles)
[9] = rasagiline 2 mg/day delayed-start, all subjects
[10] = rasagiline 2 mg/day early-start minus delayed-start, Baseline UPDRS > 25.5 (Upper Quartile)
[11] = rasagiline 2 mg/day early-start minus delayed-start, Baseline UPDRS ≦ 25.5 (Lower 3 Quartiles)
[12] = rasagiline 2 mg/day early-start, Baseline UPDRS > 25.5 (Upper Quartile)
[13] = rasagiline 2 mg/day early-start, Baseline UPDRS ≦ 25.5 (Lower 3 Quartiles)
[14] = rasagiline 2 mg/day early-start, all subjects
[15] = rasagiline 2 mg/day, Baseline UPDRS > 25.5 (Upper Quartile)
[16] = rasagiline 2 mg/day, Baseline UPDRS ≦ 25.5 (Lower 3 Quartiles)
[17] = rasagiline 2 mg/day, all subjects

SMILES: C#CCN[C@@H]1CCc2ccccc21 [rasagiline]
- Primary 1: rate of change in UPDRS, weeks 12-36, 1 mg/day - placebo [1]: −0.11 UPDRS units/wk
- Secondary Endpoint: change in total UPDRS from baseline to final visit in phase I, 1 mg/day - placebo [1]: −6.43
- Primary 1: rate of change in UPDRS, weeks 12-36, 1 mg/day - placebo [2]: −0.03 UPDRS units/wk
- Secondary Endpoint: change in total UPDRS from baseline to final visit in phase I, 1 mg/day - placebo [2]: −2.34
- Primary 1: rate of change in UPDRS, weeks 12-36, 1 mg/day - placebo (all subjects): −0.05±0.02 UPDRS units/wk and −0.05 UPDRS units/wk
- Secondary Endpoint: change in total UPDRS from baseline to final visit in phase I, 1 mg/day - placebo (all subjects): −3.01±0.43 and −3.01
- Primary 1: rate of change in UPDRS, weeks 12-36 [3]: 0.14 UPDRS units/wk
- Secondary Endpoint: change in total UPDRS from baseline to final visit in phase I [3]: 0.27
- Primary 1: rate of change in UPDRS, weeks 12-36 [4]: 0.08 UPDRS units/wk
- Secondary Endpoint: change in total UPDRS from baseline to final visit in phase I [4]: 1.40
- Change from baseline to week 72 in Total-UPDRS, early- vs delayed-start, Estimate (rasagiline 1 mg/day, Completers (n = 409), MMRM (week 48-72)): −1.6
- Change from baseline to week 72 in Total-UPDRS, early- vs delayed-start, Estimate (rasagiline 1 mg/day, ITT cohort (observed data), MMRM (weeks 12-72)): −1.7
- Change from baseline to week 72 in Total-UPDRS, early- vs delayed-start, Estimate (rasagiline 1 mg/day, Imputed - primary study cohort, Imputation by means of the delayed-start group (week 48-72)): −1.2
- Change from baseline to week 72 in Total-UPDRS, early- vs delayed-start, Estimate (rasagiline 1 mg/day, Imputed - primary study cohort, Multiple imputation (week 48-72)): −1.8
- Change from baseline to week 72 in Total-UPDRS, early- vs delayed-start, Estimate (rasagiline 1 mg/day, Per protocol (n = 405), MMRM (week 48-72)): −1.6
- Change from baseline to week 72 in Total-UPDRS, early- vs delayed-start, Estimate (rasagiline 1 mg/day, Primary study cohort (n = 489), MMRM (week 48-72)): −1.7
- Change from baseline to week 72 in Total-UPDRS, early- vs delayed-start, Estimate (rasagiline 1 mg/day, Primary study cohort, ANCOVA with LOCF): −1.7
- Change from baseline to week 72 in Total-UPDRS, early- vs delayed-start, Estimate (rasagiline 1 mg/day, Primary study cohort, MMRM, average change from baseline across weeks 48-72): −1.6
- Primary 1: rate of change in UPDRS, weeks 12-36 [5]: 0.09 UPDRS units/wk
- Secondary Endpoint: change in total UPDRS from baseline to final visit in phase I [5]: 1.26
- outcome of the primary analysis (three hierarchal endpoints) [5]: met all three primary analysis endpoints
- Primary 1: rate of change in UPDRS, weeks 12-36 [6]: 0.09±0.02 UPDRS units/wk
- outcome of the primary analysis (three hierarchal endpoints) [6]: met all endpoints
- Primary 2: estimated change in total UPDRS from baseline to week 72 [7]: 5.09
- Primary 3: rate of change in UPDRS, weeks 48-72 [7]: 0.137 UPDRS units/wk
- Primary 2: estimated change in total UPDRS from baseline to week 72 [8]: 2.60
- Primary 3: rate if change in UPDRS, weeks 48-72 [8]: 0.05 UPDRS units/wk
- Primary 2: estimated change in total UPDRS from baseline to week 72 [9]: 3.11
- Primary 3: rate of change in UPDRS, weeks 48-72 [9]: 0.065 UPDRS units/wk
- Primary 2: estimated change in total UPDRS from baseline to week 72 (rasagiline 2 mg/day delayed-start, all subjects, listed as Rasagiline): 3.11±0.5
- Primary 2: estimated change in total UPDRS from baseline to week 72, early-start-delayed-start [10]: −3.63±1.72 and −3.63
- Primary 3: rate of change in UPDRS, weeks 48-72, early-start-delayed start [10]: −0.03 UPDRS units/wk
- Primary 2: estimated change in total UPDRS from baseline to week 72, early-start-delayed-start [11]: 1.10
- Primary 3: rate if change in UPDRS, weeks 48-72, early-start-delayed start [11]: 0.05 UPDRS units/wk
- Primary 2: estimated change in total UPDRS from baseline to week 72, early-start-delayed-start (rasagiline 2 mg/day early-start minus delayed-start, all subjects): 0.36±0.68 and 0.36
- Primary 3: rate of change in UPDRS, weeks 48-72, early-start-delayed start (rasagiline 2 mg/day early-start minus delayed-start, all subjects, non-inferiority margin 0.15): 0.03 UPDRS units/wk
- Primary 2: estimated change in total UPDRS from baseline to week 72 [12]: 1.46
- Primary 3: rate of change in UPDRS, weeks 48-72 [12]: 0.106 UPDRS units/wk
- Primary 2: estimated change in total UPDRS from baseline to week 72 [13]: 3.70
- Primary 3: rate if change in UPDRS, weeks 48-72 [13]: 0.09 UPDRS units/wk
- Primary 2: estimated change in total UPDRS from baseline to week 72 [14]: 3.47
- Primary 3: rate of change in UPDRS, weeks 48-72 [14]: 0.094 UPDRS units/wk
- Primary 2: estimated change in total UPDRS from baseline to week 72 (rasagiline 2 mg/day early-start, all subjects, listed as Rasagiline): 3.47±0.5
- Primary 1: rate of change in UPDRS, weeks 12-36, 2 mg/day - placebo [1]: −0.20 UPDRS units/wk
- Secondary Endpoint: change in total UPDRS from baseline to final visit in phase I, 2 mg/day - placebo [1]: −7.13
- Primary 1: rate of change in UPDRS, weeks 12-36, 2 mg/day - placebo [2]: −0.03 UPDRS units/wk
- Secondary Endpoint: change in total UPDRS from baseline to final visit in phase I, 2 mg/day - placebo [2]: −2.16
- Primary 1: rate of change in UPDRS, weeks 12-36, 2 mg/day - placebo (all subjects): −0.07±0.02 UPDRS units/wk and −0.07 UPDRS units/wk
- Secondary Endpoint: change in total UPDRS from baseline to final visit in phase I, 2 mg/day - placebo (all subjects): −3.15±0.43 and −3.15
- Primary 1: rate of change in UPDRS, weeks 12-36 [15]: 0.05 UPDRS units/wk
- Secondary Endpoint: change in total UPDRS from baseline to final visit in phase I [15]: −0.43
- Primary 1: rate of change in UPDRS, weeks 12-36 [16]: 0.07 UPDRS units/wk
- Secondary Endpoint: change in total UPDRS from baseline to final visit in phase I [16]: 1.58
- Primary 1: rate of change in UPDRS, weeks 12-36 [17]: 0.07 UPDRS units/wk
- Secondary Endpoint: change in total UPDRS from baseline to final visit in phase I [17]: 1.11
- outcome of the primary analysis (three hierarchal endpoints) [17]: did not meet all three endpoints
- outcome of the primary analysis (three hierarchal endpoints) (rasagiline 2 mg/day, all subjects, listed as Rasagiline): did not meet all endpoints
